The values below come from patent US5493007A, “Platelet aggregation inhibitors having high specificity for GPIIBIIIA” (Genentech, Inc., priority 1994, dated 1996).

Common to all, as to type: in vivo
Data set [1] has as its system platelet rich plasma (PRP). In words: Rabbit ex-vivo platelet aggregation (XPA), ADP-induced. The conditions noted are these: Example 1. As for the experimental part:
(§1) Catheters are flushed and locked after every sample.
[…] of PRP is placed in a disposable glass cuvette with a stir bar. The cuvette is placed in the temperature regulated light path of a light transmittance aggregometer (Chrono-log) and equilibrated to a 37° C. Baseline transmittance is recorded for 30 seconds, after which […] of ADP (1 mM) is added and the change in transmittance recorded. The maximum change from baseline (dT) is noted for each sample. The extent of inhibition of XPA that is produced by an inhibitor is calculated for each animal as follows: Mean dTs are calculated for the pre and post infusion values, and then, percent inhibition is calculated as (1-dt (post)/ddt (pre))×100.

Data set [2] relates to platelet rich plasma (PRP). The experiment in a line: Ex vivo platelet aggregation, dog model. As for the experimental part:
(§2) Beagle dogs were premedicated with atropine (3 mg subcutaneously) and anesthetized with intravenous sodium pentobarbital solution (65 mg/ml, to effect, induction and maintenance). The dogs were placed in dorsal recumbency on heating pads, intubated, and placed on oxygen-room air mixture (free breathing). A pulse oximeter was attached and heart rate and oxygen saturation monitored. An indwelling catheter was placed in one cephalic vein through which normal saline drip (for patency) and maintenance anesthetic doses were administered, and in one saphenous vein through which test or control compound was bolused or infused.
At each proscribed time point a 5 ml whole blood sample was withdrawn via jugular venipuncture for ex vivo platelet aggregation and complete blood cell count. Manual pressure was applied to the venipuncture site following blood withdrawal to minimize hematoma formation.
Approximately one ml of blood withdrawn at each timepoint was placed on EDTA (purple-top vacutainer) and used to measure the complete blood cell count on a Cell-Dyne 1500 automated hematology analyzer. 3.6 ml of blood withdrawn at each timepoint was placed on a 3.8% sodium citrate (1 part to 9 parts blood) and centrifuged at 12,000 rpm for 4 seconds in an Eppendorf microcentrifuge. The resultant platelet rich plasma (PRP) was pipetted off for use in ex vivo aggregation procedures.
Platelet aggregation was measured in a Payton dual-channel aggregometer. The equipment was calibrated with PRP assigned as 0% light transmission and PPP as 100% light transmission. PRP was allowed to rest at room temperature for 20 minutes following separation from whole blood. […] PRP was incubated at 37° C. in the aggregometer for approximately 5 minutes with the chart recorder on to establish a baseline. […] ADP (1 mM) was added to the PRP and the aggregation response (change in light transmission) recorded. An aliquot of the PRP was used to perform a platelet count on the Cell-Dyne 1500 automated hematology analyzer. [drawing 50] Example 7, Compound 1

Data set [3] has as its system Beagle dogs. In words: Bleeding time, dog model. The conditions noted are these: for bleeding time during the infusion: dose printed for 7/46: bolus 125 μg/kg plus 3 μg/kg/min, 7/1 value is a mean. As for the experimental part:
as §2
At several timepoints bleeding times were measured. The forearm of the dog was closely shaven. A Surgicutt® automatic bleeding time device was employed to make an approximate 1 cm clean incision through the skin. Blood was blotted with the edge of a Whatman's #4 filter paper every 15 seconds. Bleeding time was measured as the time from incision to the last time blood was absorbed by the filter paper.

In data set [4] the test system is New Zealand White rabbits. In words: Rabbit peripheral blood flow (PBF) by observation of ear vessels. As for the experimental part: as §1
For the experiments summarized in Table 1, PBF was monitored by observation of the condition of the blood vessels in the rabbits' ears, prior to and during the infusion. Normal flow is defined as ears that appear pink to red, with no visible constriction of the major blood vessels. Decreased flow applies to ears that have constricted vessels resulting in cold, pallid ears for up to 40 minutes following the start of the inhibitor infusion.

Setting [5] is: 200 μg/kg bolus plus an infusion of 4.8 μg/kg/min.
Setting [6] is: 300 μg/kg bolus plus an infusion of 7.2 μg/kg/min.

Several values for one entry are separate records, joined by “and”; a condition that tells them apart may be missing. Equal entries are not always repeated. Where a SMILES comes first, the peptide text is derived from it. Bridges are numbered along the chain shown (N, C = ends). [ ]: non-standard residue; d: D form. Aad = N[C@@H](CCCC(=O)O)C(=O)O; Pen = CC(C)(S)[C@H](N)C(=O)O; Orn = NCCC[C@H](N)C(=O)O

Consider `N=C(N)NCCC[C@@H]1NC(=O)[C@@H](Cc2ccc(O)cc2)NC(=O)C(CCCCN)SC[C@@H](C(=O)O)NC(=O)[C@H](CC(=O)O)NC(=O)CNC1=O` (single isomer, unassigned) [9/10, cyclo-S-2-L-(6-aminocaproyl)-Lys--dTyr--Arg--Gly--Asp--Cys--OH], for which the “Rabbit % P.A. Inhibition (ex vivo)” value in data set [1] was determined as 100%.
`N=C(N)NCCC[C@@H]1NC(=O)[C@@H](Cc2ccc(O)cc2)NC(=O)CSC[C@@H](C(=O)N[C@@H](CCCN)C(N)=O)NC(=O)[C@H](CC(=O)O)NC(=O)CNC1=O` [7/5, cyclo-S-acetyl-dTyr--Arg--Gly--Asp--Cys--Orn--NH2] ({CH2CO}-[dY]RGDC[Orn]-NH2; thioether N-5): the inhibition of aggregation in data set [2] (setting [5]) was greater than 90%. For the same compound, in data set [1], the “Rabbit % P.A. Inhibition (ex vivo)” value was determined as 100%. Also, the “bleeding time, result in words” value in data set [3] (setting [5]) was “minimal prolongation of bleeding”.
In the case of `CC1(C)SCC(=O)N[C@H](Cc2ccc(O)cc2)C(=O)N[C@@H](CCCCN)C(=O)NCC(=O)N[C@@H](CC(=O)O)C(=O)N[C@@H]1C(=O)N[C@@H](CCCCN)C(N)=O` [7/17, cyclo-S-acetyl-dTyr--Lys--Gly--Asp--Pen--Lys--NH2] ({CH2CO}-[dY]KGD[Pen]K-NH2; thioether N-5), in data set [1], the “Rabbit % P.A. Inhibition (ex vivo)” value is listed as 100%. Moreover, the “peripheral blood flow, result in words” value in data set [4] is “without substantial increased cutaneous bleeding time or decreased peripheral blood flow”.
As to `CC1(C)SCC(=O)N[C@H](Cc2ccc(O)cc2)C(=O)N[C@@H](CCCCN)C(=O)NCC(=O)N[C@@H](CC(=O)O)C(=O)N[C@@H]1C(=O)N[C@@H](CCCNC(=N)N)C(N)=O` [7/16, cyclo-S-acetyl-dTyr--Lys--Gly--Asp--Pen--Arg--NH2] ({CH2CO}-[dY]KGD[Pen]R-NH2; thioether N-5), in data set [4], the “peripheral blood flow, result in words” value is “without substantial increased cutaneous bleeding time or decreased peripheral blood flow”.
`N=C(N)NCCC[C@@H]1NC(=O)[C@@H](Cc2ccc(O)cc2)NC(=O)CSC[C@@H](C(=O)O)NC(=O)[C@H](CC(=O)O)NC(=O)CNC1=O` [7/46, cyclo-S-acetyl-dTyr--Arg--Gly--Asp--Cys--OH] ({CH2CO}-[dY]RGDC-OH; thioether N-5): the “inhibition of ex vivo aggregation” value in data set [2] (bolus of 125 μg/kg plus an infusion of 3 μg/kg/min, throughout the infusion period) is given as 100%. Besides, the “Rabbit % P.A. Inhibition (ex vivo)” value in data set [1] is 99% and 55%. In addition, the “bleeding time during the infusion” value in data set [3] was greater than 30 min.
On to `N=C(N)NCCC[C@@H]1NC(=O)[C@@H](Cc2ccc(O)cc2)NC(=O)CSC[C@@H](C(=O)N[C@@H](CCC(N)=O)C(N)=O)NC(=O)[C@H](CC(=O)O)NC(=O)CNC1=O` [7/27, cyclo-S-acetyl-dTyr--Arg--Gly--Asp--Cys--Gln--NH2] ({CH2CO}-[dY]RGDCQ-NH2; thioether N-5), for which the “Rabbit % P.A. Inhibition (ex vivo)” value in data set [1] is 72% and 99%.
Turning to `N=C(N)NCCC[C@@H]1NC(=O)[C@@H](Cc2ccc(O)cc2)NC(=O)CCC[C@@H](C(=O)N[C@@H](CCCCN)C(N)=O)NC(=O)[C@H](CC(=O)O)NC(=O)CNC1=O` [10/20, cyclo(1-5)dTyr--Arg--Gly--Asp--L-α-aminoadipic acid-Lys--NH2] ([dY]RGD[Aad]K-NH2; lactam N-5), the “Rabbit % P.A. Inhibition (ex vivo)” value in data set [1] is reported as 100%.
On to `N=C(N)NCCC[C@@H]1NC(=O)[C@@H](Cc2ccc(O)cc2)NC(=O)CSC[C@@H](C(=O)N[C@@H](CCCCN)C(N)=O)NC(=O)[C@H](CC(=O)O)NC(=O)CNC1=O` [7/3, cyclo-S-acetyl-dTyr--Arg--Gly--Asp--Cys--Lys--NH2] ({CH2CO}-[dY]RGDCK-NH2; thioether N-5), for which the “inhibition of ex vivo aggregation” value in data set [2] (setting [6]) is listed as greater than 95%. Further, the “Rabbit % P.A. Inhibition (ex vivo)” value in data set [1] was 97%. Besides, the “bleeding time, result in words” value in data set [3] (setting [6]) was “without prolongation of the bleeding time”.
As to `N=C(N)NCCC[C@H](NC(=O)[C@H](Cc1ccc(O)cc1)NC(=O)[C@@H]1CSCC(=O)N[C@H](Cc2ccc(O)cc2)C(=O)N[C@@H](CCCNC(=N)N)C(=O)NCC(=O)N[C@@H](CC(=O)O)C(=O)N1)C(N)=O` [7/7, cyclo-S-acetyl-dTyr--Arg--Gly--Asp--Cys--Tyr--Arg--NH2] ({CH2CO}-[dY]RGDCYR-NH2; thioether N-5), in data set [1], the “Rabbit % P.A. Inhibition (ex vivo)” value was determined as 98%.
Take `N=C(N)NCCC[C@H](NC(=O)[C@@H]1CSCC(=O)N[C@H](Cc2ccc(O)cc2)C(=O)N[C@@H](CCCNC(=N)N)C(=O)NCC(=O)N[C@@H](CC(=O)O)C(=O)N1)C(N)=O` [7/1, cyclo-S-acetyl-dTyr--Arg--Gly--Asp--Cys--Arg--NH2] ({CH2CO}-[dY]RGDCR-NH2; thioether N-5): in data set [1], the “Rabbit % P.A. Inhibition (ex vivo)” value is reported as 100%. Also, in data set [4], the “peripheral blood flow, result in words” value is “no substantial increase in cutaneous bleeding time (1.17 times; dosed to 100% inhibition of platelet aggregation) or decrease in peripheral blood flow”. Besides, in data set [3] (before infusion (baseline)), the “bleeding time, preinfusion value” was determined as 3 min. Moreover, the “bleeding time during the infusion” value in data set [3] turned out to be 6.25 min.
